# Assay results taken from patent US10407423B2, “Compounds as inhibitors of DNA methyltransferases” (FUNDACIÓN PARA LA INVESTIGACIÓN MÉDICA APLICADA, priority 2015, dated 2019).
# Columns and labels:
# human G9a enzyme = human G9a enzyme (Homo sapiens (Human), UniProt Q96KQ7); assay: G9a enzyme activity assay (TR-FRET); type: biochemical; settings: 1 hour at room temperature
# Experimental: G9a Enzyme Activity Assay
# The biochemical assay to measure G9a enzyme activity relies on time-resolved fluorescence energy transfer (TR-FRET) between europium cryptate (donor) and XL665 (acceptor). TR-FRET is observed when biotinylated histone monomethyl-H3K9 peptide is incubated with cryptate-labeled anti-dimethyl-histone H3K9 antibody (CisBio Cat#61KB2KAE) and streptavidin XL665 (CisBio Cat#610SAXLA), after enzymatic reaction of G9a.
# The human G9a enzyme expressed in a baculovirus infected Sf9 cell expression system was obtained from BPS Biosciences (Cat. #51001). Enzyme activity assay was carried out in a white 384-well plate in a final volume of 20 μl, as follow: • 4 μl of vehicle or studied compound 2.5× concentrated prepared in assay buffer (50 mM Tris-HCl, 10 mM NaCl, 4 mM DTT, 0.01% Tween-20 pH9). Final percentage of DMSO was 0.5%. • 2 μl of 1 nM G9a enzyme diluted in assay buffer. Final concentration was 0.2 nM. • Start the reaction by adding 4 μl of substrate mixture containing 20 μM S-adenosylmethionine and 40 nM biotinylated histone monomethyl-H3K9 peptide. • Reaction was carried out during 1 hour at room temperature. • Enzyme activity was stopped by adding 5 μl of cryptate-labeled anti-dimethyl-histone H3K9 antibody. Final concentration 150 nM. • Then, add 5 μl of streptavidin XL665 beads. Final concentration of 16 μM. • Read the plate after 1 hour of incubation at room temperature.
# (§1) For each well, fluorescence was measured at 620 nm and 665 nm. A ratio (665 nm/620 nm) was then calculated in order to minimize medium interferences. Positive control was obtained in the presence of the vehicle of the compounds. Negative control was obtained in the absence of G9a enzyme activity. Calculated IC50 values were determined using GraphPrism using 4-parameters inhibition curve.
# human DNMT1 = human DNMT1 (Homo sapiens (Human), UniProt P26358); assay: DNMT1 enzyme activity assay (TR-FRET, EPIgeneous methyltransferase assay); type: biochemical; settings: 15 minutes at 37° C.
# Chain of human DNMT1 (P26358 whole entry): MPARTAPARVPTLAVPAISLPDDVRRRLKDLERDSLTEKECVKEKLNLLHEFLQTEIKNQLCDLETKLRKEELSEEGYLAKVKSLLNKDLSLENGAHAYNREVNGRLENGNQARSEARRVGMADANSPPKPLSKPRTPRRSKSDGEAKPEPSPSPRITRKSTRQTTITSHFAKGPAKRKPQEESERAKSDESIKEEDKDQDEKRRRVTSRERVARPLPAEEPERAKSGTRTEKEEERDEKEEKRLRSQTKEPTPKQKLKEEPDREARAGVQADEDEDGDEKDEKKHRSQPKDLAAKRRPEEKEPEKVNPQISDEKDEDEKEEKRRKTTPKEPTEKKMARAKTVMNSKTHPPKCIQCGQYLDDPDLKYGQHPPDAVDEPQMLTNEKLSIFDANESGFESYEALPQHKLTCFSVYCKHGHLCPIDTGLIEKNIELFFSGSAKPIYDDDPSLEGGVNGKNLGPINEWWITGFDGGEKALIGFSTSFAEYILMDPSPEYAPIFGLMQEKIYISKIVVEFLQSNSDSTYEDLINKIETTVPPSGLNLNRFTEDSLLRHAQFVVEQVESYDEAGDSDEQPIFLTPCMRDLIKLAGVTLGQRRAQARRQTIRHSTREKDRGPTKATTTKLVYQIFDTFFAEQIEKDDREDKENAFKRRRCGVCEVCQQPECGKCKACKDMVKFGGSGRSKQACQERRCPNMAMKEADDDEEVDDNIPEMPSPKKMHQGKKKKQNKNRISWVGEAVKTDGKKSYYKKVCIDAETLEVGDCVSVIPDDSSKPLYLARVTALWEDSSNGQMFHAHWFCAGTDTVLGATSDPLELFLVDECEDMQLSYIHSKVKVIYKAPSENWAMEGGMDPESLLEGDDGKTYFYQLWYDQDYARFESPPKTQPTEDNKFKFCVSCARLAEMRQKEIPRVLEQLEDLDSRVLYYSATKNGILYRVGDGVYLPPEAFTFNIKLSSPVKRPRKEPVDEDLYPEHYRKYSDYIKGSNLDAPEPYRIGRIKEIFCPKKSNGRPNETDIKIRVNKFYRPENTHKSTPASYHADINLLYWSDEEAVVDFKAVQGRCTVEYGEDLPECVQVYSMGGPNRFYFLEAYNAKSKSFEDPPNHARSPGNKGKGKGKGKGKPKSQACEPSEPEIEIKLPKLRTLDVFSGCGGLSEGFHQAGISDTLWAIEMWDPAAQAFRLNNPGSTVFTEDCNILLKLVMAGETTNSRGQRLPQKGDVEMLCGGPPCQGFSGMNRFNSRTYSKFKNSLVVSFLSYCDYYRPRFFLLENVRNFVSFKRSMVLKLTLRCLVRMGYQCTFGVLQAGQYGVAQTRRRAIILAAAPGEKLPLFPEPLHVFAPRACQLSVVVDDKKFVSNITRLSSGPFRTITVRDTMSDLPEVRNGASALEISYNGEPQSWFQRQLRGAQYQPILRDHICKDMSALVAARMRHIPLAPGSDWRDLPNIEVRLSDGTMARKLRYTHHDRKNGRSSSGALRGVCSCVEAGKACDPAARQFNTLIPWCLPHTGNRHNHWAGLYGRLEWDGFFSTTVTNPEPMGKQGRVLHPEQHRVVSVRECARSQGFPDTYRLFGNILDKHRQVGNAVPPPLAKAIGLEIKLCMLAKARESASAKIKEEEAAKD
# Experimental: DNMT1 Enzyme Activity Assay
# The biochemical assay to measure DNMT1 enzyme activity relies on time-resolved fluorescence energy transfer (TR-FRET) between lumi4-Tb (donor) and d2 (acceptor) using the EPlgeneous methyltransferase assay (CisBio Cat#62SAHPEB). TR-FRET is observed when antibody specific to S-adenosylhomocysteine labeled with Lumi4-Tb is incubated with d2-labeled S-adenosylhomocysteine. TR-FRET signal is inversely proportional to the concentration of SAH, product of DNMT1 enzyme activity, in the sample. The human DNMT1 was obtained from Reaction Biology Corp. (Cat# DMT-21-124).
# Enzyme activity assay was carried out in a white 384-well plate in a final volume of 20 μl, as follow: • 4 μl of vehicle or studied compound 2.5× concentrated prepared in assay buffer (50 mM Tris-HCl, 1 mM EDTA, 1 mM DTT, 0.1% Triton X-100, 5% glycerol pH 7.5). Final percentage of DMSO was 0.5%. • 2 μl of […] DNMT1 enzyme diluted in assay buffer. Final concentration was 20 nM. • Start the reaction by adding 4 μl of substrate mixture containing 1 μM S-adenosylmethionine and 1 μM poly-deoxy inosine poly-deoxy cytosine (pdI-pdC) DNA. • Reaction was carried out during 15 minutes at 37° C. • Enzyme activity was stopped by adding 2 μl of buffer one of the EPIgeneous methyltransferase assay. • After 10 minutes at room temperature, it was added 4 μl of antibody specific to S-adenosylhomocysteine labeled with Lumi4-Tb 50× diluted in buffer two of the EPIgeneous methyltransferase assay. • Add 4 μl of d2-labeled S-adenosylhomocysteine 31× diluted in buffer two of the EPIgeneous methyltransferase assay. • Read the plate after 1 hour of incubation at room temperature.
# as §1
# [1] = test system: CEMO-1 cells (acute lymphocytic leukemia, ALL); assay: Cell proliferation assay (CellTiter 96 Aqueous One), CEMO-1; type: cell-based; settings: CEMO-1 (ALL), 48 hours of treatment
# Experimental: (§2) Cell proliferation was analyzed after 48 hours of in vitro treatment using the CellTiter 96 Aqueous One Solution Cell Proliferation Assay (Promega, Madison, W). This is a colorimetric method for determining the number of viable cells in proliferation.
# (§3) For the assay, suspension cells were cultured by triplicate at a density of 1×10^6 cells/ml in 96-well plates (100.000 cells/well, 100 μl/well), except for OCI-Ly3 and OCI-Ly10 cell lines which were cultured at a density of 0.5×10^6 cells/ml (50,000 cells/well, 100 μl/well) and for HepG2, Hep3B and PLC/PRF/5 cell lines which were cultured at a density of 3000 cells/well, 100 μl/well). Adherent cells were obtained from 80-90% confluent flasks and 100 μl of cells were seeded at a density of 5000 cells/well in 96-well plates by triplicate. Before addition of the compounds, adherent cells were allowed to attach to the bottom of the wells for 12 hours. In all cases, only the 60 inner wells were used to avoid any border effects.
# (§4) After 48 hours of treatment, plates with suspension cells were centrifuged at 800 g for 10 minutes and medium was removed. The plates with adherent cells were flicked to remove medium. Then, cells were incubated with 100 μl/well of medium and 20 μl/well of CellTiter 96 Aqueous One Solution reagent. After 1-3 hours of incubation at 37° C., absorbance was measured at 490 nm in a 96-well plate reader. The background absorbance was measured in wells with only cell line medium and solution reagent. Data was calculated as a percentage of total absorbance of treated cell/absorbance of non treated cells.
# (§5) These cancer cell lines and primary cultures correspond to acute lymphocytic leukemia (ALL), CEMO-1, to activated B-cell-like diffuse large B-cell lymphoma (ABC-DLBCL), OCI-Ly3 and OCI-Ly10 and to hepatocellular carcinoma cells (HCC), HepG2, Hep3B and PLC/PRF/5.
# [2] = test system: HepG2 cells (hepatocellular carcinoma); assay: Cell proliferation assay (CellTiter 96 Aqueous One), HepG2; type: cell-based; settings: Homo sapiens; HepG2 (HCC), 48 hours of treatment
# Experimental: as §2, §3, §4, §5
# [3] = test system: Hep3B cells (hepatocellular carcinoma); assay: Cell proliferation assay (CellTiter 96 Aqueous One), Hep3B; type: cell-based; settings: Homo sapiens; Hep3B (HCC), 48 hours of treatment
# Experimental: as §2, §3, §4, §5
# Chain of human G9a enzyme (Q96KQ7 whole entry): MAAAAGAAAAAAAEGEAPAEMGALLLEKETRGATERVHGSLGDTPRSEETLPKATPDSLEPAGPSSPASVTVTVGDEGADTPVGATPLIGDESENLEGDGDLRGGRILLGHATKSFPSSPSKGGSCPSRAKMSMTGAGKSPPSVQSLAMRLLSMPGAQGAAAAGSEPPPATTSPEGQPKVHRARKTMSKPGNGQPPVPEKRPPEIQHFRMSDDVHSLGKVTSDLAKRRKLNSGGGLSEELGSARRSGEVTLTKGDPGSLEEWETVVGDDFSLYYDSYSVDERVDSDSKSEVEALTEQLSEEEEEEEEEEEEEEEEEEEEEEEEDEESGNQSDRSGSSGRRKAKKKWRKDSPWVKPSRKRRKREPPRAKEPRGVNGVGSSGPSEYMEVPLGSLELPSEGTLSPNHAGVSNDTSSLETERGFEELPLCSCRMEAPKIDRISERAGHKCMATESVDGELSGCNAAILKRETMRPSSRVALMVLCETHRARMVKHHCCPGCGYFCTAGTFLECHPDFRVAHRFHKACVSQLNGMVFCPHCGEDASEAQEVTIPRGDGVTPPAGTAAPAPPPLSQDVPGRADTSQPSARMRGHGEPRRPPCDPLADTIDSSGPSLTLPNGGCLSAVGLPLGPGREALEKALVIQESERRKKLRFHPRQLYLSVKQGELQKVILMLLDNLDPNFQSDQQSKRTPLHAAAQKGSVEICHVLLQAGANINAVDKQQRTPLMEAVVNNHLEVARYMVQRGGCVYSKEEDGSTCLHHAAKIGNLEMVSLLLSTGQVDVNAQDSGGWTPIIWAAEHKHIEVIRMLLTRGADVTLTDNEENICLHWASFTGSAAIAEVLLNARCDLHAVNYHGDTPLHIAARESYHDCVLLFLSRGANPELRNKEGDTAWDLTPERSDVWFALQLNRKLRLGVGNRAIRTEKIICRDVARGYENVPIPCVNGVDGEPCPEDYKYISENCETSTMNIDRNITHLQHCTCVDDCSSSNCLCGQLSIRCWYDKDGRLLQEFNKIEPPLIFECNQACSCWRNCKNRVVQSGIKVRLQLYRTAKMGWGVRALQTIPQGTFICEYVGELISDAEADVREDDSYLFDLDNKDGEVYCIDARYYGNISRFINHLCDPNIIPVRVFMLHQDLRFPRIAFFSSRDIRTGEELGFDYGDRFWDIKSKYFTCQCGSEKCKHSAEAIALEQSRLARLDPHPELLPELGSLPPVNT
Compound,IC50 (human G9a enzyme),IC50 (human DNMT1),GI50 [1],GI50 [2],GI50 [3]
"COc1cc2c3c(c(-c4ccc(C)o4)nc2cc1OCCCN1CCCC1)CC[C@H](CC1CCN(C)CC1)N3 (single isomer, unassigned) [Compound 2-09]",< 100 nM,500 to 1000 nM,,,
"COc1cc2c3c(c(-c4ccc(C)o4)nc2cc1OCCCN1CCCC1)CC[C@@H](CC1CCN(C)CC1)N3 (single isomer, unassigned) [Compound 2-10]",< 100 nM,500 to 1000 nM,,,
COc1cc2c(cc1OCCCN1CCCC1)nc(-c1ccccc1)c1cc(CC3CCN(C)CC3)[nH]c12 [Compound 1-05],100 to 500 nM,500 to 1000 nM,,,
COc1cc2c(cc1OCCCN1CCCC1)nc(-c1cc(C)oc1C)c1cc(CC3CCN(C)CC3)[nH]c12 [Compound 1-06],500 to 1000 nM,1000 to 10000 nM,,,
"COc1ccc2c3c(c(-c4ccc(C)o4)nc2c1)CCCN3 [Compound 2-01, 8-methoxy-5-(5-methyl-2-furyl)-1,2,3,4-tetrahydrobenzo[h][1,6]naphthyridine]",> 10000 nM,1000 to 10000 nM,,,
"Cc1ccc(-c2nc3cc(OCCCN4CCCC4)ccc3c3c2CCCN3)o1 [Compound 2-02, 5-(5-methyl-2-furyl)-8-(3-pyrrolidin-1-ylpropoxy)-1,2,3,4-tetrahydrobenzo[h][1,6]naphthyridine]",1000 to 10000 nM,500 to 1000 nM,,,
"COc1cc2c3c(c(-c4ccc(C)o4)nc2cc1OCCCN1CCCC1)CCCN3 [Compound 2-03, 9-methoxy-5-(5-methyl-2-furyl)-8-(3-pyrrolidin-1-ylpropoxy)-1,2,3,4-tetrahydrobenzo[h][1,6]naphthyridine]",< 100 nM,1000 to 10000 nM,1000 to 10000 nM,,
"COc1cc2c3c(c(-c4ccc(C)o4)nc2cc1OCCCN1CCCC1)CCCN3CCCN1CCCC1 [Compound 2-04, 9-methoxy-5-(5-methyl-2-furyl)-8-(3-pyrrolidin-1-ylpropoxy)-1-(3-pyrrolidin-1-ylpropyl)-3,4-dihydro-2H-benzo[h][1,6]naphthyridine]",> 10000 nM,500 to 1000 nM,,,
"COc1cc2c3c(c(-c4ccc(C)o4)nc2cc1OCCCN1CCCC1)CCC(CC1CCNCC1)N3 (stereo not drawn) [Compound 2-05, 9-methoxy-5-(5-methyl-2-furyl)-2-(4-piperidylmethyl)-8-(3-pyrrolidin-1-ylpropoxy)-1,2,3,4-tetrahydrobenzo[h][1,6]naphthyridine]",< 100 nM,500 to 1000 nM,,,
"COc1cc2c3c(c(-c4ccc(C)o4)nc2cc1OCCCN1CCCC1)CCC(CC1CCN(C(C)=O)CC1)N3 (stereo not drawn) [Compound 2-11, 1-[4-[[9-methoxy-5-(5-methyl-2-furyl)-8-(3-pyrrolidin-1-ylpropoxy)-1,2,3,4-tetrahydrobenzo[h][1,6]naphthyridin-2-yl]methyl]-1-piperidyl]ethanone]",< 100 nM,1000 to 10000 nM,,,
"COc1cc2c3c(c(-c4ccc(C)o4)nc2cc1OCCCN1CCCC1)CCC(CC1CCN(C2CCCCC2)CC1)N3 (stereo not drawn) [Compound 2-12, 2-[(1-cyclohexyl-4-piperidyl)methyl]-9-methoxy-5-(5-methyl-2-furyl)-8-(3-pyrrolidin-1-ylpropoxy)-1,2,3,4-tetrahydrobenzo[h][1,6]naphthyridine]",< 100 nM,500 to 1000 nM,100 to 1000 nM,100 to 1000 nM,100 to 1000 nM
"COc1cc2c3c(c(-c4cc(C)oc4C)nc2cc1OCCCN1CCCC1)CCC(CC1CCN(C)CC1)N3 (stereo not drawn) [Compound 2-13, 9-methoxy-5-(2,5-dimethyl-3-furyl)-2-[(1-methyl-4-piperidyl)methyl]-8-(3-pyrrolidin-1-ylpropoxy)-1,2,3,4-tetrahydrobenzo[h][1,6]naphthyridine]",< 100 nM,1000 to 10000 nM,,,
"COc1cc2c(cc1OCCCN1CCCC1)nc(-c1ccc(C)o1)c1cccnc12 [Compound 3-01, 9-methoxy-5-(5-methyl-2-furyl)-8-(3-pyrrolidin-1-ylpropoxy)benzo[h]-[1,6]naphthyridine]",1000 to 10000 nM,1000 to 10000 nM,,,
"COc1cc2c(cc1OCCCN1CCCC1)nc(-c1ccc(C)o1)c1ccc(CC3CCNCC3)nc12 [Compound 3-02, 9-methoxy-5-(5-methyl-2-furyl)-2-(4-piperidylmethyl)-8-(3-pyrrolidin-1-ylpropoxy)benzo[h][1,6]naphthyridine]",100 to 500 nM,500 to 1000 nM,,,
"COc1cc2c(cc1OCCCN1CCCC1)nc(-c1ccc(C)o1)c1ccc(CC3CCN(C)CC3)nc12 [Compound 3-03, 9-methoxy-5-(5-methyl-2-furyl)-2-[(1-methyl-4-piperidyl)methyl]-8-(3-pyrrolidin-1-ylpropoxy)benzo[h][1,6]naphthyridine]",< 100 nM,1000 to 10000 nM,,,
"COc1cc2c(cc1OCCCN1CCCC1)nc(-c1cc(C)oc1C)c1ccc(CC3CCN(C)CC3)nc12 [Compound 3-04, 9-methoxy-5-(2,5-dimethyl-3-furyl)-2-[(1-methyl-4-piperidyl)methyl]-8-(3-pyrrolidin-1-ylpropoxy)benzo[h][1,6-]naphthyridine]",100 to 500 nM,> 10000 nM,,,
"COc1cc2c(cc1OCCCN1CCCC1)nc(-c1ccc(C)o1)c1c(=O)n(C3CCN(C)CC3)[nH]c12 [Compound 4-03, 8-methoxy-4-(5-methyl-2-furyl)-2-(1-methyl-4-piperidyl)-7-(3-pyrrolidin-1-ylpropoxy)-1H-pyrazolo[4,3-c]quinolin-3-one]",> 10000 nM,1000 to 10000 nM,,,
"COc1cc2c(cc1OCCCN1CCCC1)nc(-c1ccc(C)o1)c1c(=O)n(CC3CCN(C)CC3)[nH]c12 [Compound 4-04, 8-methoxy-4-(5-methyl-2-furyl)-2-[(1-methyl-4-piperidyl)methyl]-7-(3-pyrrolidin-1-ylpropoxy)-1H-pyrazolo[4,3-c]quinolin-3-one]",> 10000 nM,1000 to 10000 nM,,,
"COc1cc2c(cc1OCCCN1CCCC1)nc(-c1ccc(C)o1)c1c(=O)n(CC3CCN(C)CC3)n(CC3CCN(C)CC3)c12 [Compound 4-05, 8-methoxy-4-(5-methyl-2-furyl)-1,2-bis[(1-methyl-4-piperidyl)methyl]-7-(3-pyrrolidin-1-ylpropoxy)pyrazolo[4,3-c]quinolin-3-one]",> 10000 nM,1000 to 10000 nM,,,
